According to the kinase profiling compilation of Christmann-Franck et al. (2016):

Columns and labels:
Test in all cases: radiometric filter-binding kinase assay
[1] = test system: RPS6KB1 (human), P23443 [T412E]
RPS6KA3 KD1 KD2 (human) = RPS6KA3 KD1 KD2 (human) (UniProt P51812)
BRSK2 (human) = BRSK2 (human) (UniProt Q8IWQ3)
CDK2 CCNA2 (human) = CDK2 CCNA2 (human) (UniProt P20248+P24941)
CSNK1D (human) = CSNK1D (human) (UniProt P48730)
MYLK (human) = MYLK (human) (UniProt Q15746)
MELK (human) = MELK (human) (UniProt Q14680)
PIM3 (human) = PIM3 (human) (UniProt Q86V86)
MAPK12 (human) = MAPK12 (human) (UniProt P53778)
MAPK8 (human) = MAPK8 (human) (UniProt P45983)
SYK (human) = SYK (human) (UniProt P43405)
FLT1 (human) = FLT1 (human) (UniProt P17948)
INSRR (human) = INSRR (human) (UniProt P14616)
PIM1 (human) = PIM1 (human) (UniProt P11309)
FGFR1 (human) = FGFR1 (human) (UniProt P11362)
[2] = test system: SGK1 (human), O00141 [S422D]
CSK (human) = CSK (human) (UniProt P41240)
PLK1 (human) = PLK1 (human) (UniProt P53350)
INSR (human) = INSR (human) (UniProt P06213)
TBK1 (human) = TBK1 (human) (UniProt Q9UHD2)

Sequence of MELK (human) (Q14680 whole entry, looked up): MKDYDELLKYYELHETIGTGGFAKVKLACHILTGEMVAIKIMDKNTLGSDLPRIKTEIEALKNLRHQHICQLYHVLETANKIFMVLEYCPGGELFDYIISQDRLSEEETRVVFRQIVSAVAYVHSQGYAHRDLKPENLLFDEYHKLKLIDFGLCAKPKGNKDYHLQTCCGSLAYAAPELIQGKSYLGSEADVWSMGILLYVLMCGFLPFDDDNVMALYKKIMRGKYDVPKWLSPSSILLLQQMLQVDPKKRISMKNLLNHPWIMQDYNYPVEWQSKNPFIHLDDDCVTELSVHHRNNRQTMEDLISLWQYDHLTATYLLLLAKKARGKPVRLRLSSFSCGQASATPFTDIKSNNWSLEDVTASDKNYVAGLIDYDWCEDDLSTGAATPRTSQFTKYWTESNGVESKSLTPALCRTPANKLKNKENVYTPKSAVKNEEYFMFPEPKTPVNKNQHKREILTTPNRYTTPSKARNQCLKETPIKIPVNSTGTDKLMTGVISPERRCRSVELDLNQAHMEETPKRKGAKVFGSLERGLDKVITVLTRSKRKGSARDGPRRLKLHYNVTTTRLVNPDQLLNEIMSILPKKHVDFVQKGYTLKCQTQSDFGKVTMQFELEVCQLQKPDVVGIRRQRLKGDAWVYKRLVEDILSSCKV
Sequence of RPS6KA3 KD1 KD2 (human) (P51812 whole entry, looked up): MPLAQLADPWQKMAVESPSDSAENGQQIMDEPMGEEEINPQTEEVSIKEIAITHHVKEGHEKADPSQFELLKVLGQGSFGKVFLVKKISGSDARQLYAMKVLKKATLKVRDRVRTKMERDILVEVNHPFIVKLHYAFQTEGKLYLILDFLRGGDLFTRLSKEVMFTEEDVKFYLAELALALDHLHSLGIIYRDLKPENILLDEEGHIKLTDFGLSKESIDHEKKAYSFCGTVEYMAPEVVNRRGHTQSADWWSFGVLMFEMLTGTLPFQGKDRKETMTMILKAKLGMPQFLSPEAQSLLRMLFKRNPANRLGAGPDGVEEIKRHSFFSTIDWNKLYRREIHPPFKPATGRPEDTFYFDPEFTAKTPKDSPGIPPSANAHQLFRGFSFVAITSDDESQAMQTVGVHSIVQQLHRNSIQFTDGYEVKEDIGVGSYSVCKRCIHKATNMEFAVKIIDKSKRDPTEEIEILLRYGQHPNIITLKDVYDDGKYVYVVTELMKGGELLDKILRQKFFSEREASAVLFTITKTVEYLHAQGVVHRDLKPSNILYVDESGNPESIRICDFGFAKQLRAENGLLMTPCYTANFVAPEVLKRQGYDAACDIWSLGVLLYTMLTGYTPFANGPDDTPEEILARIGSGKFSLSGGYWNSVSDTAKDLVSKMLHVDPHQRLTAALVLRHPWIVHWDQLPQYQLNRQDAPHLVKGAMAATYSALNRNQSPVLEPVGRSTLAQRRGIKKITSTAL
Sequence of FGFR1 (human) (P11362 whole entry, looked up): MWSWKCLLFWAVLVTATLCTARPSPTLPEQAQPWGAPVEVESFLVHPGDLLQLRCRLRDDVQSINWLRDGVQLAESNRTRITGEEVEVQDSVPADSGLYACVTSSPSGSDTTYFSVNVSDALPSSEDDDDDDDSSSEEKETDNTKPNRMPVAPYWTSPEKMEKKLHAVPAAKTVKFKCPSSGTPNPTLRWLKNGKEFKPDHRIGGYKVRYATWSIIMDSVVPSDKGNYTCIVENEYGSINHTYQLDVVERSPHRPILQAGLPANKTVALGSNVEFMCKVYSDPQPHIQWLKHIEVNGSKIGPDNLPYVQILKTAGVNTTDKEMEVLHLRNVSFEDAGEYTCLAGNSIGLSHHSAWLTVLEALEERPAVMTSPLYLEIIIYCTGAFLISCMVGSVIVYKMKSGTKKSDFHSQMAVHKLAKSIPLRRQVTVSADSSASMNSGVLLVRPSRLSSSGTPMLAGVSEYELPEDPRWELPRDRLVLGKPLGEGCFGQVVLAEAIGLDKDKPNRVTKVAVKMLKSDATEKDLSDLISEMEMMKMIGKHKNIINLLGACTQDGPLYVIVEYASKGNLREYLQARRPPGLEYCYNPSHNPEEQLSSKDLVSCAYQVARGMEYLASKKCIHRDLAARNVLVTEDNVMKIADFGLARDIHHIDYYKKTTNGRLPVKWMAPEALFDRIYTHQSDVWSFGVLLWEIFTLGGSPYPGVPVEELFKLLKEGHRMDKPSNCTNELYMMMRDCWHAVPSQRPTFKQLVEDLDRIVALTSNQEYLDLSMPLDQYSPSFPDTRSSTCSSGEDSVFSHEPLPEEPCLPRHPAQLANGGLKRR
Sequence of CSNK1D (human) (P48730 whole entry, looked up): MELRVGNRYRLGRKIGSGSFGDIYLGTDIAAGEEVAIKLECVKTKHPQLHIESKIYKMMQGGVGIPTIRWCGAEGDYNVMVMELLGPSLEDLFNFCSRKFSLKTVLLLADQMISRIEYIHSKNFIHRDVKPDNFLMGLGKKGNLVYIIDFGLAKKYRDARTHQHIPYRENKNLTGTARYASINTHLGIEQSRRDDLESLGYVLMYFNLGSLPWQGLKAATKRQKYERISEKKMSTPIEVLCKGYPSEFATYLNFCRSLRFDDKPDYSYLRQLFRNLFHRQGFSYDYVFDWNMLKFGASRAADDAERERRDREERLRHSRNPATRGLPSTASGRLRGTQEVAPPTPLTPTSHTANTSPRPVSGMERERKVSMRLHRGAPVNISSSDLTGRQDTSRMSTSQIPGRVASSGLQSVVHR
Sequence of PLK1 (human) (P53350 whole entry, looked up): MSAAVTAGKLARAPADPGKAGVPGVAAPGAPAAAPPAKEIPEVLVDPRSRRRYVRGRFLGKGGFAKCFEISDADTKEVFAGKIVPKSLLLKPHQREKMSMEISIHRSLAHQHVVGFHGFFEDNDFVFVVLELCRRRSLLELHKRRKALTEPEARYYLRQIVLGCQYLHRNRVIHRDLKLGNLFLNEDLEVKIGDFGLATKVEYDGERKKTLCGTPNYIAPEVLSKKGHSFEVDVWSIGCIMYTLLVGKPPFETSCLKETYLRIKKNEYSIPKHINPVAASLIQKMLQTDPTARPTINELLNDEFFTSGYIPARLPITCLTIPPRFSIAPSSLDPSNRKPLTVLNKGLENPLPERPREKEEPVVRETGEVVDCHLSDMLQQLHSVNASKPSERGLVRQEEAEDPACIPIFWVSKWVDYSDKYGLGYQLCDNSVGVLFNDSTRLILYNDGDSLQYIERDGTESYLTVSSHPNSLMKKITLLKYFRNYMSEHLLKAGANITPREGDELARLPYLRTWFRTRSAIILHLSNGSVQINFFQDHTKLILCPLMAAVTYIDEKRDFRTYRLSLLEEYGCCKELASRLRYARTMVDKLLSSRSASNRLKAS
Sequence of SGK1 (human), O00141 [S422D] (O00141 whole entry S422D, looked up): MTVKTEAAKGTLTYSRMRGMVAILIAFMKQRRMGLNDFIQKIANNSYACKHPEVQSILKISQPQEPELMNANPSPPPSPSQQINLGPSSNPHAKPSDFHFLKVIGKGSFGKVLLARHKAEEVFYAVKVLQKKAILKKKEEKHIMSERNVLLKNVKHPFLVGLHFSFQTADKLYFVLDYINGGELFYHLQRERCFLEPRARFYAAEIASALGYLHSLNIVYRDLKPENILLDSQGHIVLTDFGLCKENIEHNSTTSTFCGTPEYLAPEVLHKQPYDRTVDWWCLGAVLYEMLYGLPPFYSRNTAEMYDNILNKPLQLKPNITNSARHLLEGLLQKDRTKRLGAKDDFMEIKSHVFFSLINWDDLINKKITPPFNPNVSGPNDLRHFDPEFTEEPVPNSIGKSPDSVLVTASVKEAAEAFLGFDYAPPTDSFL
Sequence of BRSK2 (human) (Q8IWQ3 whole entry, looked up): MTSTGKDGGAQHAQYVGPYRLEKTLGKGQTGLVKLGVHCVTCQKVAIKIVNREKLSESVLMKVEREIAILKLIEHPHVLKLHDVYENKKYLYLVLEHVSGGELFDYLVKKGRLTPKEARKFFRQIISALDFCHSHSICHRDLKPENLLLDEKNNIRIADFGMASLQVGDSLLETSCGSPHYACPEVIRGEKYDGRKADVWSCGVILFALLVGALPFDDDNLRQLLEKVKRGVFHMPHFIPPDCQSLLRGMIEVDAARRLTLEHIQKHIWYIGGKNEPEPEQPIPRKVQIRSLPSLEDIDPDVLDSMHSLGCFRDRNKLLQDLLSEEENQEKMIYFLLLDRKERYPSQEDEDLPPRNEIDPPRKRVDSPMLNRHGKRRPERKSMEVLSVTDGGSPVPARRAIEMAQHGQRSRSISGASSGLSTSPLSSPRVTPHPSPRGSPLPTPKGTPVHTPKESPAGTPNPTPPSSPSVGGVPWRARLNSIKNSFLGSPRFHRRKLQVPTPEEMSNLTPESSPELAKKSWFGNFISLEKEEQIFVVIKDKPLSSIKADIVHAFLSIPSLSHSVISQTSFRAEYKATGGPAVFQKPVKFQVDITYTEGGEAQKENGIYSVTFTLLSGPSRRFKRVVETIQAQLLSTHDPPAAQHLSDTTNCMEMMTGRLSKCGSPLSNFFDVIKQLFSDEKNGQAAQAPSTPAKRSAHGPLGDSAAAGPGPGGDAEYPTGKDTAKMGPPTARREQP

`CCc1cncnc1N1CCN(Cc2nc3cc(C(F)(F)F)ccc3[nH]2)CC1` showed a residual activity ([1]; compound 0.1 µM) of 39%, a residual activity ([1]; compound 1.0 µM) of 16% and a residual activity ([1]; compound 10.0 µM) of 6%. The residual activity (RPS6KA3 KD1 KD2 (human); compound 0.1 µM) was 86%, the residual activity (RPS6KA3 KD1 KD2 (human); compound 1.0 µM) was 67% and the residual activity (RPS6KA3 KD1 KD2 (human); compound 10.0 µM) was 25%. It also gave a residual activity (BRSK2 (human); compound 0.1 µM) of 88%, a residual activity (BRSK2 (human); compound 1.0 µM) of 84% and a residual activity (BRSK2 (human); compound 10.0 µM) of 83%. The residual activity (CDK2 CCNA2 (human); compound 1.0 µM) was 101%, the residual activity (CDK2 CCNA2 (human); compound 10.0 µM) was 88% and the residual activity (CSNK1D (human); compound 0.1 µM) was 96%. It also gave a residual activity (CSNK1D (human); compound 1.0 µM) of 93%, a residual activity (CSNK1D (human); compound 10.0 µM) of 71% and a residual activity (MYLK (human); compound 0.1 µM) of 95%. The residual activity (MYLK (human); compound 1.0 µM) was 79%, the residual activity (MYLK (human); compound 10.0 µM) was 87% and the residual activity (MELK (human); compound 0.1 µM) was 94%. It also gave a residual activity (MELK (human); compound 1.0 µM) of 101%, a residual activity (MELK (human); compound 10.0 µM) of 87% and a residual activity (PIM3 (human); compound 0.1 µM) of 93%. The residual activity (PIM3 (human); compound 1.0 µM) was 88%, the residual activity (PIM3 (human); compound 10.0 µM) was 83% and the residual activity (MAPK12 (human); compound 0.1 µM) was 107%. The residual activity (MAPK12 (human); compound 1.0 µM) was 102%, the residual activity (MAPK12 (human); compound 10.0 µM) was 103% and the residual activity (MAPK8 (human); compound 1.0 µM) was 107%. The residual activity (MAPK8 (human); compound 10.0 µM) was 95%, the residual activity (SYK (human); compound 0.1 µM) was 121% and the residual activity (SYK (human); compound 1.0 µM) was 100%. For the same molecule, the residual activity (SYK (human); compound 10.0 µM) was 91%, the residual activity (FLT1 (human); compound 0.1 µM) was 97% and the residual activity (FLT1 (human); compound 1.0 µM) was 83%. The residual activity (FLT1 (human); compound 10.0 µM) was 37%, the residual activity (INSRR (human); compound 0.1 µM) was 88% and the residual activity (INSRR (human); compound 1.0 µM) was 96%. The residual activity (INSRR (human); compound 10.0 µM) was 77%, the residual activity (PIM1 (human); compound 0.1 µM) was 88% and the residual activity (PIM1 (human); compound 1.0 µM) was 90%. It also gave a residual activity (PIM1 (human); compound 10.0 µM) of 78%, a residual activity (FGFR1 (human); compound 0.1 µM) of 91% and a residual activity (FGFR1 (human); compound 1.0 µM) of 92%. For the same molecule, the residual activity (FGFR1 (human); compound 10.0 µM) was 63%, the residual activity ([2]; compound 0.1 µM) was 106% and the residual activity ([2]; compound 1.0 µM) was 74%. For the same molecule, the residual activity ([2]; compound 10.0 µM) was 65%, the residual activity (CSK (human); compound 0.1 µM) was 94% and the residual activity (CSK (human); compound 1.0 µM) was 93%. It also gave a residual activity (CSK (human); compound 10.0 µM) of 98%, a residual activity (PLK1 (human); compound 0.1 µM) of 98% and a residual activity (PLK1 (human); compound 1.0 µM) of 87%. It also gave a residual activity (PLK1 (human); compound 10.0 µM) of 88%, a residual activity (INSR (human); compound 0.1 µM) of 108% and a residual activity (INSR (human); compound 1.0 µM) of 95%. It also gave a residual activity (INSR (human); compound 10.0 µM) of 96%, a residual activity (TBK1 (human); compound 0.1 µM) of 108% and a residual activity (TBK1 (human); compound 1.0 µM) of 105%. It also gave a residual activity (TBK1 (human); compound 10.0 µM) of 97%.
With `Cc1cc(SCc2sc(-c3ccc(C(F)(F)F)cc3)nc2C)ccc1OCC(=O)O` the residual activity ([1]; compound 1.0 µM) was 98%, the residual activity ([1]; compound 10.0 µM) was 105% and the residual activity (RPS6KA3 KD1 KD2 (human); compound 1.0 µM) was 94%. It also gave a residual activity (BRSK2 (human); compound 1.0 µM) of 91%, a residual activity (BRSK2 (human); compound 10.0 µM) of 78% and a residual activity (CDK2 CCNA2 (human); compound 1.0 µM) of 87%. For the same molecule, the residual activity (CDK2 CCNA2 (human); compound 10.0 µM) was 81%, the residual activity (CSNK1D (human); compound 1.0 µM) was 82% and the residual activity (CSNK1D (human); compound 10.0 µM) was 80%. For the same molecule, the residual activity (MYLK (human); compound 1.0 µM) was 92%, the residual activity (MYLK (human); compound 10.0 µM) was 74% and the residual activity (MELK (human); compound 1.0 µM) was 79%. It also gave a residual activity (MELK (human); compound 10.0 µM) of 85%, a residual activity (PIM3 (human); compound 1.0 µM) of 86% and a residual activity (PIM3 (human); compound 10.0 µM) of 72%. It also gave a residual activity (MAPK12 (human); compound 1.0 µM) of 108%, a residual activity (MAPK12 (human); compound 10.0 µM) of 106% and a residual activity (MAPK8 (human); compound 1.0 µM) of 83%. The residual activity (MAPK8 (human); compound 10.0 µM) was 74%, the residual activity (SYK (human); compound 1.0 µM) was 103% and the residual activity (SYK (human); compound 10.0 µM) was 85%. The residual activity (FLT1 (human); compound 1.0 µM) was 84%, the residual activity (FLT1 (human); compound 10.0 µM) was 74% and the residual activity (INSRR (human); compound 1.0 µM) was 81%. It also gave a residual activity (INSRR (human); compound 10.0 µM) of 95%, a residual activity (PIM1 (human); compound 1.0 µM) of 79% and a residual activity (PIM1 (human); compound 10.0 µM) of 83%. For the same molecule, the residual activity (FGFR1 (human); compound 1.0 µM) was 100%, the residual activity (FGFR1 (human); compound 10.0 µM) was 81% and the residual activity ([2]; compound 1.0 µM) was 111%. For the same molecule, the residual activity ([2]; compound 10.0 µM) was 109%, the residual activity (CSK (human); compound 1.0 µM) was 98% and the residual activity (CSK (human); compound 10.0 µM) was 97%. The residual activity (PLK1 (human); compound 1.0 µM) was 75%, the residual activity (PLK1 (human); compound 10.0 µM) was 60% and the residual activity (INSR (human); compound 1.0 µM) was 107%. For the same molecule, the residual activity (INSR (human); compound 10.0 µM) was 103%, the residual activity (TBK1 (human); compound 1.0 µM) was 102% and the residual activity (TBK1 (human); compound 10.0 µM) was 88%.
